For 2 compounds, IC50 and ED50 results are on record in patent US5552422A, “Aryl substituted 5,5 fused aromatic nitrogen compounds as anti-inflammatory agents” (Merck Frosst Canada, Inc., priority 1995, dated 1996).

One test deals with T1, Cox-2 (Homo sapiens, UniProt P35354).
T1 construct: incubation of human whole blood with LPS (lipopoly saccharide), which induces Cox-2; endogenous in cells
T1 sequence (P35354 18-604): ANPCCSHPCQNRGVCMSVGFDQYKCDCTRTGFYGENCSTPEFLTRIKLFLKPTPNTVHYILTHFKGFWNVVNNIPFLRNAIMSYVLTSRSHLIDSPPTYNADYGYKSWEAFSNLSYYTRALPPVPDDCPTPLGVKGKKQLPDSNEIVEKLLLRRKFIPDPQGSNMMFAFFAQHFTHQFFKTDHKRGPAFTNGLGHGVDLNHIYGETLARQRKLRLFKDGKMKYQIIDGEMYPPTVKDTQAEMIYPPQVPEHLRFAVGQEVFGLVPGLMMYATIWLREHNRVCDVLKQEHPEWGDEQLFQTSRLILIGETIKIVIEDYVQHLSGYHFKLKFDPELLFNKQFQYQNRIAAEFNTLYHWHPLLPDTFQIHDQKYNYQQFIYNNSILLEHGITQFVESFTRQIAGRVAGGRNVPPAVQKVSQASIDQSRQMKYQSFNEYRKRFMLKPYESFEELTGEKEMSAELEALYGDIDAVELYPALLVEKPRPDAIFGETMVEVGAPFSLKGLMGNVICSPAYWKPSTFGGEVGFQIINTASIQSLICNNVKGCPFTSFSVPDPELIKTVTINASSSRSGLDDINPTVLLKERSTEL
As to the kind of experiment: Human whole blood assay, Cox-2 (LPS-induced PGE2 production). It is filed as cell-based. The note with it: PGE2 after LPS induction, 24 hours. On the procedure: (§1) Immediately following blood clotting, platelets are activated through a thrombin-mediated mechanism.
Fresh blood was collected in heparinized tubes by venipuncture from both male and female volunteers. The subjects had no apparent inflammatory conditions and had not taken any NSAIDs for at least 7 days prior to blood collection. Plasma was immediately obtained from a 2 mL blood aliquot to use as blank (basal levels of PGE2).
(§2) In the assay, inhibition is determined by measuring the amount of prostaglandin E2 (PGE2) synthesized in the presence of arachidonic acid, cyclooxygenase-1 or cyclooxygenase-2 and a putative inhibitor.

The next test deals with T2, Cox-1 (Homo sapiens, UniProt P23219).
T2 construct: platelets in whole blood contain a large amount of the Cox-1 enzyme; endogenous in cells; host or cells: platelets in fresh human whole blood (clotting)
T2 sequence (P23219 24-599): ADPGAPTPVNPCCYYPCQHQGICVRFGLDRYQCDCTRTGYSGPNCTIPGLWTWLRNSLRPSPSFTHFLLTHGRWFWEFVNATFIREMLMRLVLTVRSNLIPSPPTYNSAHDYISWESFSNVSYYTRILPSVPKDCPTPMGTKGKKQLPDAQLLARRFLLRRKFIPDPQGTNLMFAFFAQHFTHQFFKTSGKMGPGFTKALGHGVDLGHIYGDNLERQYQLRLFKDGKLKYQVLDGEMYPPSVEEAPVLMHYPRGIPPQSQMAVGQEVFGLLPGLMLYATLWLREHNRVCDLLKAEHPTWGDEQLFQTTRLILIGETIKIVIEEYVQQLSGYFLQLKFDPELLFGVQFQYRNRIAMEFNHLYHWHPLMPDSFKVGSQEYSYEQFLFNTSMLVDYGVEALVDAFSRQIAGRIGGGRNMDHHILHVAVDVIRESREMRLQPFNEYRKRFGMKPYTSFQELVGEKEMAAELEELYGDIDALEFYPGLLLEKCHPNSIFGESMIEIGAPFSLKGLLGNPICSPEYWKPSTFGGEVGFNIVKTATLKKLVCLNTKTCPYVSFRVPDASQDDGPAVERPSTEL
As to the kind of experiment: Human whole blood assay, Cox-1 (clotting-induced TxB2 production). The note with it: TxB2 following blood clotting. Type of test: cell-based. How it is done: as §1
Aliquots of 500 μL were immediately transferred to siliconized microcentrifuge tubes preloaded with 2 μL of either DMSO or a test compound at final concentrations varying from 10 nM to 30 μM. The tubes were vortexed and incubated at 37° C. for 1 hour to allow blood to clot.
as §2

Another test relates to rat paw edema. Particulars: po, carrageenan paw edema, 3 hr.

Description for rat paw edema: Male Sprague-Dawley rats (150-200 g) were fasted overnight and were given po either vehicle (1% methocel or 5% Tween 80) or a test compound. One hr later, a line was drawn using a permanent marker at the level above the ankle in one hind paw to define the area of the paw to be monitored. The paw volume (V0) was measured using a plethysmometer (Ugo-Basile, Italy) based on the principle of water displacement. The animals were then injected subplantarly with 50 μl of 1% carrageenan solution in saline (FMC Corp, Maine) into the paw using an insulin syringe with a 25-gauge needle (i.e., 500 μg carrageenan per paw). Three hr later, the paw volume (V3) was measured and the increases in paw volume (V3 -V0) were calculated. The animals were sacrificed by CO2 aphyxiation and the absence or presence of stomach lesions scored. Data were compared with the vehicle-control values and percent inhibition calculated. […] All treatment groups were coded to eliminate observer bias.

For `CS(=O)(=O)c1ccc(-c2c(-c3ccccc3)nc3sccn23)cc1` [Example 1, 5-(4-(Methylsulfonyl)phenyl)-6-phenylimidazo[2,1-b]thiazole], the IC50 at Cox-2 was 330 nM; on Cox-1 it was over 30000 nM. Compound `COc1ccc2c(c1)c(CC(=O)O)c(C)n2C(=O)c1ccc(Cl)cc1` [Indomethacin, indomethacin] returned an ED50 in the test with rat paw edema of 2 mg/kg.
